Test system: recovered yeast (slurry yeast recovered from the beer fermentation step)
Assay: Methylene Blue staining ratio (mortality) of yeast before drying or after drying and reconstitution with water
Type: cell-based
Conditions: for Elevating the survival ratio of the yeast after reconstitution with water, similar to glycerol: as substitute for glycerol; for Elevating the survival ratio of the dry yeast after reconstitution with water, similar to trehalose: as substitute for trehalose; for Ratio of the dead cells after drying and reconstitution with water: 5% of trehalose
Experimental: 50 g of a 20% aqueous solution of trehalose was added to 50 g of the recovered yeast and the resultant mixture was stirred at 20° C. for 3 hours to thereby incorporate the trehalose into the yeast cells. Then the yeast having trehalose thus incorporated was filtered under suction on a filter paper No.2 with the use of a Nutsche filter. The obtained yeast was then passed through a 14-mesh sieve and dried in a thermostat at 30° C. for about 20 hours to give a dry yeast. 0.1 g of this dry yeast was suspended and reconstituted in 1 ml of distilled water at room temperature. Then the mortality of the yeast was measured by the Methylene Blue staining method. Since dead cells could not reduce Methylene Blue, the cells stained with Methylene Blue were regarded as dead cells. Thus, the Methylene Blue staining ratio could be referred to as the mortality. […] Thus, trehalose was incorporated as in Example 1 and then the yeast was dried. […]
To 50 g of the slurry yeast recovered from the beer fermentation step, 50 g of an aqueous trehalose solution (concentration: about 20%) was added. After stirring at 20° C. for 3 hours, the yeast was centrifuged, suspended in 50 g portions of 300 g/L aqueous solutions of various sugar alcohols and maintained at room temperature for 15 minutes. Subsequently, the yeast was filtered under suction on a filter paper No.2 as in Example 2. The obtained yeast was passed through a 14-mesh sieve and dried in a thermostat at 5° C. for about 20 hours. The dry yeast thus obtained was reconstituted with water as in Example 2 and stained with Methylene Blue to measure the mortality of the yeast.
To 50 g of the slurry yeast recovered from the beer fermentation step, 50 g of an aqueous trehalose solution (concentration: about 20%) was added. After stirring at 20° C. for 3 hours, the yeast was centrifuged, suspended in 50 g of an about 300 g/L aqueous glycerol solution and maintained at room temperature for 15 minutes. Subsequently, the yeast was filtered under suction on a filter paper No.2 as in Example 2. The obtained yeast was passed through a 14-mesh sieve and dried in a thermostat at 5° C. to 30° C. for about 20 hours. Alternatively, the yeast was dried by using a fluidized bed dryer at 30° C. for 1 hour. Each of the dry yeast thus obtained was rehydrated with water as in Example 2 and stained with Methylene Blue to measure the mortality of the yeast.

[1] = sugar/sugar alcohol (about 20% solution, 20° C., 3 hours) as substitute for trehalose, then 300 g/L glycerol, dried at 5° C.
[2] = trehalose-treatment, then 300 g/L sugar alcohol as substitute for glycerol, 15 minutes, dried at 5° C.
[3] = glycerol 100 g/L after trehalose-treatment
[4] = glycerol 150 g/L after trehalose-treatment
[5] = glycerol 200 g/L after trehalose-treatment
[6] = glycerol 300 g/L after trehalose-treatment
[7] = trehalose-treatment as in Example 2, after rehydration with water

SMILES: OC[C@H]1O[C@@H](O[C@H]2[C@H](O)[C@@H](O)C(O)O[C@@H]2CO)[C@H](O)[C@@H](O)[C@H]1O (some centres unmarked) [Lactose]
- Methylene Blue-staining ratio (%) after reconstitution with water [1]: 38.6%

SMILES: OC[C@@H](O)[C@H](O)[C@@H](O)CO [Xylitol]
- Elevating the survival ratio of the yeast after reconstitution with water, similar to glycerol: effective
- Methylene Blue-staining ratio (%) after reconstitution with water [1]: 41.6%
- Methylene Blue-staining ratio (%) after reconstitution with water [2]: 30.4%

SMILES: OC[C@@H](O)[C@@H](O)[C@H](O)[C@@H](O)CO [Sorbitol]
- Methylene Blue-staining ratio (%) after reconstitution with water [1]: 41.8%
- Methylene Blue-staining ratio (%) after reconstitution with water [2]: 41.2%

SMILES: OCC(O)CO [Glycerol, glycerol]
- Methylene Blue-staining ratio, after reconstitution with water after drying and storing at 25° C. for 8 days [3]: 59.8%
- Methylene Blue-staining ratio, before drying [3]: 20.8%
- Methylene Blue-staining ratio, immediately after drying/reconstitution with water (glycerol 100 g/L after trehalose-treatment, dried at 5° C.): 30.8%
- Methylene Blue-staining ratio, after reconstitution with water after drying and storing at 25° C. for 8 days [4]: 62.3%
- Methylene Blue-staining ratio, before drying [4]: 66.7%
- Methylene Blue-staining ratio, immediately after drying/reconstitution with water (glycerol 150 g/L after trehalose-treatment, dried at 5° C.): 23.7%
- Methylene Blue-staining ratio, after reconstitution with water after drying and storing at 25° C. for 8 days [5]: 40.2%
- Methylene Blue-staining ratio, before drying [5]: 97.8%
- Methylene Blue-staining ratio, immediately after drying/reconstitution with water (glycerol 200 g/L after trehalose-treatment, dried at 5° C.): 26.3%
- Methylene Blue-staining ratio, after reconstitution with water after drying and storing at 25° C. for 8 days [6]: 48.5%
- Methylene Blue-staining ratio, before drying [6]: 99.6%
- Methylene Blue-staining ratio, immediately after drying/reconstitution with water (glycerol 300 g/L after trehalose-treatment, dried at 5° C.): 26.2%
- Methylene Blue-staining ratio, before drying (trehalose-treatment then 300 g/L aqueous glycerol, 15 minutes): 95.8%
- Methylene Blue-staining ratio, after drying/reconstitution with water (trehalose-treatment then 300 g/L aqueous glycerol, 15 minutes, dried at 5° C.): 18.3%
- Methylene Blue-staining ratio (%) after reconstitution with water [2]: 24.4%

SMILES: O=C[C@H](O)[C@@H](O)[C@@H](O)[C@H](O)CO [Galactose]
- Methylene Blue-staining ratio (%) after reconstitution with water [1]: 40.6%

SMILES: OC1OC[C@@H](O[C@@H]2OC[C@@H](O)[C@H](O)[C@H]2O)[C@H](O)[C@H]1O (some centres unmarked) [Xylobiose]
- Methylene Blue-staining ratio (%) after reconstitution with water [1]: 46.5%

SMILES: OC[C@@H](O)[C@@H](O)[C@H](O)[C@H](O)CO [Mannitol]
- Elevating the survival ratio of the dry yeast after reconstitution with water, similar to trehalose: effective
- Methylene Blue-staining ratio (%) after reconstitution with water [1]: 37.1%
- Methylene Blue-staining ratio (%) after reconstitution with water [2]: 47.5%

SMILES: O=C(CO)[C@@H](O)[C@H](O)[C@H](O)CO [Fructose]
- Methylene Blue-staining ratio (%) after reconstitution with water [1]: 51.1%

SMILES: OC[C@@H](O)[C@@H](O[C@H]1O[C@H](CO)[C@@H](O)[C@H](O)[C@H]1O)[C@H](O)[C@@H](O)CO [Maltitol]
- Elevating the survival ratio of the yeast after reconstitution with water, similar to glycerol: effective
- Elevating the survival ratio of the dry yeast after reconstitution with water, similar to trehalose: effective
- Methylene Blue-staining ratio (%) after reconstitution with water [1]: 29.7%
- Methylene Blue-staining ratio (%) after reconstitution with water [2]: 30.1%

SMILES: O=C[C@H](O)[C@@H](O)[C@H](O[C@@H]1O[C@H](CO)[C@@H](O)[C@H](O)[C@H]1O)[C@H](O)CO [Cellobiose]
- Methylene Blue-staining ratio (%) after reconstitution with water [1]: 54.8%

SMILES: OC[C@H]1O[C@H](O[C@H]2[C@H](O)[C@@H](O)[C@H](O)O[C@@H]2CO)[C@H](O)[C@@H](O)[C@@H]1O [Maltose]
- Methylene Blue-staining ratio (%) after reconstitution with water [1]: 56.4%

SMILES: OC[C@H]1O[C@H](O[C@H]2O[C@H](CO)[C@@H](O)[C@H](O)[C@H]2O)[C@H](O)[C@@H](O)[C@@H]1O [Trehalose, trehalose]
- Ratio of the dead cells after drying and reconstitution with water (10° C., 1 or 3 hours): about 60%
- Ratio of the dead cells after drying and reconstitution with water (10° C., 21 hours): about 90%
- Methylene Blue-staining ratio (before drying, treated with 5% trehalose, 10° C., 1 Hrs): 8.97
- Methylene Blue-staining ratio (before drying, treated with 5% trehalose, 10° C., 3 Hrs): 8.45
- Methylene Blue-staining ratio (before drying, treated with 5% trehalose, 10° C., 21 Hrs): 11.88
- Methylene Blue-staining ratio (before drying, treated with 5% trehalose, 20° C., 1 Hrs): 6.58
- Methylene Blue-staining ratio (before drying, treated with 5% trehalose, 20° C., 3 Hrs): 7.51
- Methylene Blue-staining ratio (before drying, treated with 5% trehalose, 20° C., 21 Hrs): 16.44
- Methylene Blue-staining ratio (before drying, treated with 10% trehalose, 10° C., 1 Hrs): 6.36
- Methylene Blue-staining ratio (before drying, treated with 10% trehalose, 10° C., 3 Hrs): 8.67
- Methylene Blue-staining ratio (before drying, treated with 10% trehalose, 10° C., 21 Hrs): 17.68
- Methylene Blue-staining ratio (before drying, treated with 10% trehalose, 20° C., 1 Hrs): 8.26
- Methylene Blue-staining ratio (before drying, treated with 10% trehalose, 20° C., 3 Hrs): 9.24
- Methylene Blue-staining ratio (before drying, treated with 10% trehalose, 20° C., 21 Hrs): 8.90
- Methylene Blue-staining ratio (immediately after reconstitution with water (dried at 30° C.), 5% trehalose, 10° C., 1 Hrs): 63.72
- Methylene Blue-staining ratio (immediately after reconstitution with water (dried at 30° C.), 5% trehalose, 10° C., 3 Hrs): 63.40
- Methylene Blue-staining ratio (immediately after reconstitution with water (dried at 30° C.), 5% trehalose, 10° C., 21 Hrs): 90.11
- Methylene Blue-staining ratio (immediately after reconstitution with water (dried at 30° C.), 5% trehalose, 20° C., 1 Hrs): 64.95
- Methylene Blue-staining ratio (immediately after reconstitution with water (dried at 30° C.), 5% trehalose, 20° C., 3 Hrs): 84.17
- Methylene Blue-staining ratio (immediately after reconstitution with water (dried at 30° C.), 5% trehalose, 20° C., 21 Hrs): 92.47
- Methylene Blue-staining ratio (immediately after reconstitution with water (dried at 30° C.), 10% trehalose, 10° C., 1 Hrs): 69.51
- Methylene Blue-staining ratio (immediately after reconstitution with water (dried at 30° C.), 10% trehalose, 10° C., 3 Hrs): 64.95
- Methylene Blue-staining ratio (immediately after reconstitution with water (dried at 30° C.), 10% trehalose, 10° C., 21 Hrs): 79.33
- Methylene Blue-staining ratio (immediately after reconstitution with water (dried at 30° C.), 10% trehalose, 20° C., 1 Hrs): 62.15
- Methylene Blue-staining ratio (immediately after reconstitution with water (dried at 30° C.), 10% trehalose, 20° C., 3 Hrs): 62.04
- Methylene Blue-staining ratio (immediately after reconstitution with water (dried at 30° C.), 10% trehalose, 20° C., 21 Hrs): 87.43
- Methylene Blue-staining ratio (%) after reconstitution with water [1]: 32.2%
- Mortality (%) after drying at 30° C. [7]: 73.4%
- Mortality (%) after drying at 50° C. [7]: 58.0%

SMILES: O=C[C@H](O)[C@@H](O)[C@H](O)CO [Xylose]
- Elevating the survival ratio of the dry yeast after reconstitution with water, similar to trehalose: effective
- Methylene Blue-staining ratio (%) after reconstitution with water [1]: 37.7%

SMILES: OC[C@H]1O[C@@](CO)(O[C@H]2O[C@H](CO)[C@@H](O)[C@H](O)[C@H]2O)[C@@H](O)[C@@H]1O [Sucrose]
- Methylene Blue-staining ratio (%) after reconstitution with water [1]: 51.9%

From patent US7052724B2, “Method of producing active dry yeast” (Suntory Limited, priority 2001, dated 2006)
